Data from the supplement of paper PMC11061612.

Key:
Assay in all cases: combination Emax (second highest fraction inhibited in the dose matrix, 72 h); higher = more inhibition; extreme values may be limits of the assay
[1] = system: CAL-62 (Thyroid Gland Carcinoma)
Outline: (§1)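 Cell lines grown in DMEM/F12 or RPMI with 10% FBS were plated in 1536-well plates and held 24 hours at 37°C, 5% CO2 before 72 hours of exposure to two-drug dose matrices, with DMSO typically at 0.2%. CellTiter-Glo 2.0 luminescence gave viability, which was converted to inhibition. Vehicle wells were set to 0 and blank wells to 1. Combination Emax is the second-highest inhibition in the matrix, and Bliss excess is the observed combination effect minus the expected EA + EB − EA·EB, where EA and EB are the single-agent effects.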

[2] = system: HSC-39 (Gastric Carcinoma)
Outline: as §1

IST-MES1 (Mesothelioma) = system: IST-MES1 (Mesothelioma)
Outline: as §1

[3] = system: LK-2 (Squamous Cell Lung Carcinoma)
Outline: as §1

[4] = system: MFE-280 (Endometrial Carcinoma)
Outline: as §1

[5] = system: MKN45 (Gastric Carcinoma)
Outline: as §1

NB12 (Neuroblastoma) = system: NB12 (Neuroblastoma)
Outline: as §1

[6] = system: NCI-H2342 (Lung Adenocarcinoma)
Outline: as §1

[7] = system: OPM-2 (Plasma Cell Myeloma)
Outline: as §1

[8] = system: OVMIU (Ovarian Carcinoma)
Outline: as §1

[9] = system: PANC-03-27 (Pancreatic Carcinoma)
Outline: as §1

[10] = system: PSN1 (Pancreatic Carcinoma)
Outline: as §1

[11] = system: RCM-1 (Colorectal Carcinoma)
Outline: as §1

[12] = system: REH (B-Lymphoblastic Leukemia)
Outline: as §1

[13] = system: RKN (Other Solid Carcinomas)
Outline: as §1

SF539 (Glioblastoma) = system: SF539 (Glioblastoma)
Outline: as §1

SK-MEL-2 (Melanoma) = system: SK-MEL-2 (Melanoma)
Outline: as §1

[14] = system: SK-PN-DW (Other Solid Carcinomas)
Outline: as §1

[15] = system: TE-8 (Esophageal Squamous Cell Carcinoma)
Outline: as §1

[16] = system: VAL (B-Cell Non-Hodgkin's Lymphoma)
Outline: as §1

Compound | combination Emax [1] | combination Emax [2] | combination Emax (IST-MES1 (Mesothelioma)) | combination Emax [3] | combination Emax [4] | combination Emax [5] | combination Emax (NB12 (Neuroblastoma)) | combination Emax [6] | combination Emax [7] | combination Emax [8] | combination Emax [9] | combination Emax [10] | combination Emax [11] | combination Emax [12] | combination Emax [13] | combination Emax (SF539 (Glioblastoma)) | combination Emax (SK-MEL-2 (Melanoma)) | combination Emax [14] | combination Emax [15] | combination Emax [16]
C=CCn1c(=O)c2cnc(Nc3ccc(N4CCN(C)CC4)cc3)nc2n1-c1cccc(C(C)(C)O)n1 [AZD1775] + CCc1c2c(nc3ccc(O)cc13)-c1cc3c(c(=O)n1C2)COC(=O)[C@]3(O)CC [SN-38] (first compound max 1 µM, partner max 0.3 µM) | 0.893 | 1 | 0.778 | 0.975 | 0.87 | 0.843 | 0.879 | 0.737 | 0.954 | 0.587 | 0.844 | 0.927 | 0.775 | 0.989 | 0.817 | 0.997 | 0.619 | 0.947 | 0.923 | 0.953
C=CCn1c(=O)c2cnc(Nc3ccc(N4CCN(C)CC4)cc3)nc2n1-c1cccc(C(C)(C)O)n1 [AZD1775] + Nc1ccn([C@@H]2O[C@H](CO)[C@@H](O)C2(F)F)c(=O)n1 [Gemcitabine] (first compound max 1 µM, partner max 0.3 µM) | 0.826 | 1 | 0.831 | 0.982 | 0.655 | 0.753 | 0.806 | 0.784 | 0.953 | 0.608 | 0.703 | 0.832 | 0.593 | 0.999 | 0.633 | 0.986 | 0.507 | 0.864 | 0.806 | 0.794
CN(CCO)CC[C@H](CSc1ccccc1)Nc1ccc(S(=O)(=O)NC(=O)c2ccc(N3CCC([C@@H](O)c4ccccc4-c4ccc(Cl)cc4)CC3)cc2)cc1S(=O)(=O)C(F)(F)F [AZD4320] + CC(=O)O[C@H]1C(=O)[C@@]2(C)[C@H]([C@H](OC(=O)c3ccccc3)[C@]3(O)C[C@H](OC(=O)[C@H](O)[C@@H](NC(=O)c4ccccc4)c4ccccc4)C(C)=C1C3(C)C)[C@]1(OC(C)=O)CO[C@@H]1C[C@@H]2O [Paclitaxel] (first compound max 1 µM, 7x7, partner max 3 µM) | 0.951 | 1 | 0.873 | 1 | 0.979 | 0.751 | 1 | 0.977 | 1 | 0.929 | 0.885 | 0.942 | 0.54 | 1 | 0.994 | 1 | 0.915 | 0.918 | 0.967 | 1
CN(CCO)CC[C@H](CSc1ccccc1)Nc1ccc(S(=O)(=O)NC(=O)c2ccc(N3CCC([C@@H](O)c4ccccc4-c4ccc(Cl)cc4)CC3)cc2)cc1S(=O)(=O)C(F)(F)F [AZD4320] + CS(=O)(=O)CCNCc1ccc(-c2ccc3ncnc(Nc4ccc(OCc5cccc(F)c5)c(Cl)c4)c3c2)o1 [Lapatinib] (first compound max 1 µM, 7x7, partner max 10 µM) | 0.911 | 0.985 | 0.892 | 0.977 | 0.962 | 0.2 | 1 | 0.368 | 0.938 | 0.971 | 0.907 | 0.267 | 0.901 | 1 | 0.212 | 0.575 | 0.27 | 0.85 | 0.744 | 1
CN(CCO)CC[C@H](CSc1ccccc1)Nc1ccc(S(=O)(=O)NC(=O)c2ccc(N3CCC([C@@H](O)c4ccccc4-c4ccc(Cl)cc4)CC3)cc2)cc1S(=O)(=O)C(F)(F)F [AZD4320] + Nc1ccn([C@@H]2O[C@H](CO)[C@@H](O)C2(F)F)c(=O)n1 [Gemcitabine] (first compound max 1 µM, 7x7, partner max 0.3 µM) | 0.911 | 0.869 | 0.8 | 0.916 | 0.8 | 0.582 | 1 | 0.403 | 0.628 | 0.596 | 0.737 | 0.885 | 0.37 | 1 | 0.275 | 0.945 | 0.0969 | 0.165 | 0.57 | 1
Cc1c2c(nn1C)CSCc1cc(n(C)n1)CSc1cc(c3ccccc3c1)OCCCc1c(C(=O)O)n(C)c3c-2c(Cl)ccc13 [AZD5991] + CC(=O)O[C@H]1C(=O)[C@@]2(C)[C@H]([C@H](OC(=O)c3ccccc3)[C@]3(O)C[C@H](OC(=O)[C@H](O)[C@@H](NC(=O)c4ccccc4)c4ccccc4)C(C)=C1C3(C)C)[C@]1(OC(C)=O)CO[C@@H]1C[C@@H]2O [Paclitaxel] (first compound max 1 µM, 7x7, partner max 3 µM) | 0.81 | 1 | 0.651 | 0.986 | 0.574 | 0.709 | 0.91 | 0.988 | 1 | 0.735 | 0.688 | 0.746 | 0.342 | 1 | 0.839 | 0.971 | 1 | 0.952 | 0.702 | 0.765
Cc1c2c(nn1C)CSCc1cc(n(C)n1)CSc1cc(c3ccccc3c1)OCCCc1c(C(=O)O)n(C)c3c-2c(Cl)ccc13 [AZD5991] + CS(=O)(=O)CCNCc1ccc(-c2ccc3ncnc(Nc4ccc(OCc5cccc(F)c5)c(Cl)c4)c3c2)o1 [Lapatinib] (first compound max 1 µM, 7x7, partner max 10 µM) | 0.237 | 1 | 0.615 | 0.186 | 0.347 | 0.245 | 0.464 | 0.34 | 1 | 0.687 | 0.558 | 0.316 | 0.409 | 0.862 | 0.205 | 0.479 | 0.955 | 0.956 | 0.409 | 0.677
Cc1c2c(nn1C)CSCc1cc(n(C)n1)CSc1cc(c3ccccc3c1)OCCCc1c(C(=O)O)n(C)c3c-2c(Cl)ccc13 [AZD5991] + Nc1ccn([C@@H]2O[C@H](CO)[C@@H](O)C2(F)F)c(=O)n1 [Gemcitabine] (first compound max 1 µM, 7x7, partner max 0.3 µM) | 0.751 | 1 | 0.742 | 0.674 | 0.468 | 0.64 | 0.77 | 0.636 | 1 | 0.551 | 0.549 | 0.846 | 0.392 | 0.984 | 0.107 | 0.886 | 0.925 | 0.815 | 0.574 | 0.847
C[C@@H]1COCCN1c1cc(C2([S@](C)(=N)=O)CC2)nc(-c2ccnc3[nH]ccc23)n1 [AZD6738] + C1CC(C1)(C(=O)[O-])C(=O)[O-].N.N.[Pt+2] [Carboplatin] (first compound max 10 µM, 7x7, partner max 10 µM) | 0.684 | 1 | 0.461 | 0.406 | 0.302 | 0.708 | – | 0.492 | 0.828 | 0.547 | 0.652 | 0.435 | 0.638 | 0.629 | 0.286 | 0.875 | 0.201 | 0.903 | 0.522 | 0.7
C[C@@H]1COCCN1c1cc(C2([S@](C)(=N)=O)CC2)nc(-c2ccnc3[nH]ccc23)n1 [AZD6738] + Nc1ccn([C@@H]2O[C@H](CO)[C@@H](O)C2(F)F)c(=O)n1 [Gemcitabine] (first compound max 10 µM, 7x7, partner max 0.3 µM) | 0.871 | 1 | 0.798 | 0.918 | 0.864 | 0.756 | 0.801 | 0.85 | 0.942 | 0.517 | 0.737 | 0.893 | 0.744 | 0.994 | 0.788 | 0.981 | 0.454 | 0.957 | 0.83 | 0.809
Cc1cc2ncnn2cc1Nc1ncc2c(n1)n(C1CCOCC1)c(=O)n2C [AZD7648] + COc1cc([C@@H]2c3cc4c(cc3[C@@H](O[C@@H]3O[C@@H]5CO[C@@H](C)O[C@H]5[C@H](O)[C@H]3O)[C@H]3COC(=O)[C@H]23)OCO4)cc(OC)c1O [Etoposide] (first compound max 10 µM, 7x7, partner max 10 µM) | 0.829 | 0.854 | 0.685 | 0.784 | 0.889 | 0.582 | 0.695 | 0.569 | 0.788 | 0.498 | 0.619 | 0.834 | 0.515 | 0.976 | 0.598 | 0.934 | 0.166 | 0.918 | 0.602 | 0.905
C[C@@H](Nc1cc(F)cc(F)c1)c1cc(C(=O)N(C)C)cc2c(=O)cc(N3CCOCC3)oc12 [AZD8186] + C1CN(CCC1(C(=O)N[C@@H](CCO)C2=CC=C(C=C2)Cl)N)C3=NC=NC4=C3C=CN4 [AZD5363] (first compound max 10 µM, 7x7, partner max 10 µM) | 0.165 | 0.603 | 0.267 | 0.177 | 0.546 | 0.455 | 0.419 | 0.286 | 0.922 | 0.509 | 0.315 | 0.357 | 0.233 | 0.452 | 0.328 | 0.538 | 0.113 | 0.575 | 0.455 | 0.555
